Source: patent publication US5567688A, “L-nucleosides for the treatment of hepatitis B-virus” (priority 1995, dated 1996)
Like-named read-outs stand apart in the source and are kept apart here.

Assays:
EBV = assay: Inhibition of EBV production in H1 cells (bioassay, EBV DP activity in superinfected Raji cells); type: cell-based; conditions: for IC90: human gammaherpesvirus 4, Raji, 120 h
Procedure: (§1) H1 cells were maintained in […] growth for two days prior to the initiation of treatment. The cells were centrifuged at 600 g for 10 min. at room temperature to separate them from the medium containing pre-existing virus particles. The H1 cells were seeded in 24 well plates at a density of 1×10^5 cells per well in 2 ml of fresh medium with or without drug and incubated at 37° C. for 5 days. The medium containing virion was saved and used for evaluating the inhibitory effect of drugs on virus production and infectivity by use of a bioassay. The virion were pelleted from the cell free medium by centrifugation at 45,000 rpm for 90 min. in a SW-50 Ti rotor (Beckman). The virion were resuspended in 1 ml growth medium and then used to infect 1×10^6 Raji cells for 48 hours. Since the level of EBV DP activity in Raji cells post superinfection is proportional to the number of virions added (unpublishedresult), the EBV specific DP activity induced was able to be measured. The inhibitory drug effect Was calculated by comparing the EBV DP activity to multiple dilution controls.
Inhibitory effect of compounds on EBV: The CD50 was performed by
exposing H1 cells to different concentrations of the compounds in normal
growth medium at 37° C. for 72 hours; the cells were then counted
and compared with controls. H1 cells were treated for 5 days and the
ID90 was determined by bioassay.

HBV = assay: Inhibition of HBV DNA in 2.2.15 cells (Southern analysis); type: cell-based, HBV (human hepatoma 2.2.15 cells); conditions: for Therapeutic Index (DC50/ID50): HBV, CD50 / anti-HBV ID50; for IC50: Hepatitis B virus, 144 h, 2.2.15 cells, 6-day treatment, 50% inhibition of the DNA, read-out: Anti-HBV Activity ID50
Procedure: Human hepatoma cells with HBV (2.2.15 cells) were used in the assay. These cells were grown to confluence in minimal essential medium with 10% fetal bovine serum. The media was changed at 3-day intervals. At confluence the treatment with the drugs was initiated and then continued for three days. Another addition of the same concentration of the drug was given at this point after removal of the media from the cultures and cultures maintained for an additional period of 3 days. The medium after the 6-day treatment was harvested and the viral particles precipitated by the polyethylene glycol method. The particles were subsequently digested and then processed for Southern analysis. The blots were hybridizied to an HBV-specific probe and vital DNA amounts assessed in comparison to DNA levels from cultures not treated with the drugs. The genomic DNA was digested with Hind III and subjected to Southern analysis. Levels of the episomal DNA were determined in relation to the integrated HBV DNA. The drug concentrations that cause 50% inhibition of the DNA (ID50) as compared to the controls were calculated.

[1] = Cytotoxicity in MT2 cells (CD50); type: cell-based; conditions: human
[2] = Cytotoxicity in CEM cells (CD50); type: cell-based; conditions: human
[3] = Cytotoxicity (CD50) of Table I, cell line not given; type: cell-based
[4] = Cytotoxicity in H1 cells (cell count); type: cell-based; conditions: 37° C., read-out: CD50
mitochondrial DNA = assay: Mitochondrial DNA content in H1 cells (slot blot assay); type: cell-based, human; conditions: 1 mM, 6 days
Procedure: as §1
Slot Blot Assay--The amount of mitochondrial DNA was measured by the slot blot method (2). […] The amount of mitochondrial DNA in the treated and non-treated H1 cells was quantified by densitometer (LKB Ultroscan XL).

[5] = EBV, H1 cells treated for 5 days, bioassay, read-out: ID90 (the source's name)

Compound | IC90 (EBV; [5]) | Therapeutic Index (DC50/ID50) (HBV) | IC50 (HBV) | CC50 [1] | CC50 [2] | CC50 [3] | Therapeutic Index (CD50/ID90) (EBV; EBV, H1 cells) | CC50 at 72 h [4] | IC90 (EBV; read-out: ID90) | Inhibitory effect on EBV (in words) (EBV; EBV, H1 cells, up to 100 μM) | Inhibition of mitochondrial DNA content in H1 cells (mitochondrial DNA)
Nc1nc2c(ncn2COCCO)c(=O)[nH]1 [ACV] | 50 ± 8 µM | – | – | – | – | – | – | – | – | – | –
CCc1cn([C@@H]2O[C@H](CO)[C@@H](O)[C@@H]2F)c(=O)[nH]c1=O [D-FEAU] | 1 µM | > 80 | 5 µM | 100 µM | 90 µM | > 400 µM | > 400 | > 400 µM | – | – | –
Cc1cn([C@@H]2O[C@H](CO)[C@@H](O)[C@@H]2F)c(=O)[nH]c1=O [D-FMAU] | 0.1 µM | < 5 | – | 8 to 9 µM | 10 µM | < 10 µM | < 100 | < 10 µM | – | – | –
Nc1nc2c(ncn2COC(CO)CO)c(=O)[nH]1 [DHPG] | 5 ± 1 µM | – | – | – | – | – | – | – | – | – | –
CCc1cn([C@H]2O[C@@H](CO)[C@H](O)[C@H]2F)c(=O)[nH]c1=O [L-FEAU, N1-(2'-Deoxy-2'-fluoro-β-L-arabinofuranosyl)-5-ethyluracil] | – | > 80 | > 5 µM | 100 µM | > 100 µM | > 400 µM | 20 | > 400 µM | 20 µM | – | –
Nc1nc(=O)n([C@H]2O[C@@H](CO)[C@H](O)[C@H]2F)cc1I [L-FIAC, N1-(2'-Deoxy-2'-fluoro-β-L-arabinofuranosyl)-5-iodocytosine] | – | – | – | – | – | – | – | – | – | inactivity up to 100 μM | –
Cc1cn([C@H]2O[C@@H](CO)[C@H](O)[C@H]2F)c(=O)[nH]c1=O [L-FMAU, N1-(2'-Deoxy-2'-fluoro-β-L-arabinofuranosyl)-thymine] | 5 ± 0.8 µM | 9130 | – | 100 µM | > 100 µM | 913 ± 70 µM | 182 | 913 ± 70 µM | – | – | No inhibition
Nc1nc2c(ncn2CCC(CO)CO)c(=O)[nH]1 [PCV] | 20 ± 2 µM | – | – | – | – | – | – | – | – | – | –
O=C(O)P(=O)(O)O [PFA] | 75 ± 5 µM | – | – | – | – | – | – | – | – | – | –
